Measured values published in patent publication EP4643657A1, “COMPOSITIONS CONTAINING SHORT-CHAIN FATTY ACID, METHODS OF USE, AND METHODS OF MAKING THEREOF” (Velocity Life Sciences, LLC, priority 2024, dated 2025).

Experiments:
[1] = male, human, in vivo
[2] = Visual-analog scales of affect, randomized three-arm crossover trial (Example 5); assay type: in vivo, human; design: Mood AUC / Alertness AUC / Well-being AUC / Calm and Relaxed AUC / Stressed and Anxious AUC: unit not given here; conditions: Mean±SD
Method: Experimental Design: This was a randomized, three-arm, crossover trial in which participants visited the laboratory on four occasions (one screening visit and three testing visits). […] Written informed consent was obtained from all subjects prior to enrollment. The study was retrospectively registered on clinicaltrials.gov (#NCT06700785). This study was conducted at The Center for Applied Health Sciences, a contract research organization located in Northeast Ohio. […] VAS assessed subjective ratings of state of well-being, calm and relaxed, stressed and anxious, mood, motivation to perform tasks, level of alertness, and ability to concentrate and were anchored with "Worst possible", "Lowest possible", "Strongly Disagree", or "Best Possible", "Highest Possible", "Strongly Agree". […] Statistical Analyses: Normality was assessed using Q-Q plot and Shapiro-Wilks test. Severe non-normal measures were normalized using log (In) transformation. Serum butyrate concentrations, subjective ratings of affect, and vitals over time between treatments were analyzed using a mixed effects factorial ANOVA . Tukey post hocs were applied if significant main effects/interactions were observed. […] Effect sizes are reported as Cohen's d (with 0.2 considered a small effect, 0.5 considered a medium effect, and 0.8 considered a large effect). All analyses were conducted in GraphPad Prism v.10.4.0.

[3] = given intravenously; plasma; cited from earlier work
[4] = 0 min (prior to ingestion), 100-mm VAS
[5] = 0-210 min, 786 mg of butyric acid oral
[6] = 45 min post ingestion, 786 mg of butyric acid oral, 100-mm VAS
[7] = 90 min post ingestion, 786 mg of butyric acid oral, 100-mm VAS
[8] = 150 min post ingestion, 786 mg of butyric acid oral, 100-mm VAS
[9] = 210 min post ingestion, 786 mg of butyric acid oral, 100-mm VAS

Structure (SMILES): CCCC(=O)OCC(COC(=O)CCC)OC(=O)CCC [TB, propane-1,2,3-triyl tributanoate]
- Serum Butyrate ([1]; 0 min): 0.41 ± 0.71 µg/mL
- Serum Butyrate AUC0-210 ([1]; po, 786 mg): 108 ± 190
- Serum Butyrate Cmax ([1]; po, 786 mg): 910 ± 1650 ng/mL
- Ability to concentrate (VAS) [2, 4]: 6.9 ± 1.7 cm
- Alertness [2, 4]: 6.7 ± 1.7
- Calm and Relaxed [2, 4]: 7.5 ± 1.2 cm
- Mood [2, 4]: 7.1 ± 1.5^# cm
- Stressed and Anxious [2, 4]: 2.7 ± 2.0 cm
- Well-being [2, 4]: 7.4 ± 1.2 cm
- Alertness AUC [2, 5]: 1481 ± 293
- Calm and Relaxed AUC [2, 5]: 1571 ± 245
- Concentration AUC [2, 5]: 1504 ± 315
- Mood AUC [2, 5]: 1600 ± 214
- Well-being AUC [2, 5]: 1588 ± 234
- Stressed and Anxious AUC ([2]; 0-210 min, 786 mg of butyric acid oral, raw untransformed data): 518 ± 408
- Ability to concentrate (VAS) [2, 6]: 7.1 ± 1.6 cm
- Alertness [2, 6]: 7.0 ± 1.5
- Calm and Relaxed [2, 6]: 7.2 ± 1.4 cm
- Mood [2, 6]: 7.5 ± 1.1^# cm
- Stressed and Anxious [2, 6]: 2.7 ± 2.2 cm
- Well-being [2, 6]: 7.6 ± 1.1 cm
- Ability to concentrate (VAS) [2, 7]: 6.9 ± 1.6 cm
- Alertness [2, 7]: 6.9 ± 1.4
- Calm and Relaxed [2, 7]: 7.5 ± 1.3 cm
- Mood [2, 7]: 7.6 ± 1.0^# cm
- Stressed and Anxious [2, 7]: 2.4 ± 1.9 cm
- Well-being [2, 7]: 7.6 ± 1.2 cm
- Alertness [2, 8]: 7.1 ± 1.6^#
- Calm and Relaxed [2, 8]: 7.5 ± 1.2 cm
- Concentration [2, 8]: 7.4 ± 1.4^α cm
- Mood [2, 8]: 7.7 ± 1.0 cm
- Stressed and Anxious [2, 8]: 2.4 ± 2.0 cm
- Well-being [2, 8]: 7.5 ± 1.1 cm
- Ability to concentrate (VAS) [2, 9]: 7.5 ± 1.6 cm
- Alertness [2, 9]: 7.5 ± 1.5
- Calm and Relaxed [2, 9]: 7.9 ± 1.2 cm
- Mood [2, 9]: 8.0 ± 1.0 cm
- Stressed and Anxious [2, 9]: 2.3 ± 2.2 cm
- Well-being [2, 9]: 7.8 ± 1.2 cm
- Perform Tasks ([2]; motivation to perform tasks, 0 min (prior to ingestion), 100-mm VAS): 6.9 ± 1.6 cm
- Perform Tasks AUC ([2]; motivation to perform tasks, 0-210 min, 786 mg of butyric acid oral): 1505 ± 331
- Perform Tasks ([2]; motivation to perform tasks, 45 min post ingestion, 786 mg of butyric acid oral, 100-mm VAS): 7.2 ± 1.3 cm
- Perform Tasks ([2]; motivation to perform tasks, 90 min post ingestion, 786 mg of butyric acid oral, 100-mm VAS): 7.1 ± 1.7 cm
- Perform Tasks ([2]; motivation to perform tasks, 150 min post ingestion, 786 mg of butyric acid oral, 100-mm VAS): 7.2 ± 1.8 cm
- Perform Tasks ([2]; motivation to perform tasks, 210 min post ingestion, 786 mg of butyric acid oral, 100-mm VAS): 7.3 ± 1.9 cm

Structure (SMILES): CCCC(=O)O [Butyric Acid, butanoic acid]
- half-life [3]: about six
